The record followed here is patent US8906888B2, “Low-calcemic 16,23-diene 25-oxime analogs of 1α,25-dihydroxy vitamin D3” (Cytochroma Inc., priority 2005, dated 2014).

The structures appear in SMILES notation.

The test concerns the target T1, VDR (Homo sapiens, UniProt P11473).
T1 construct: purchased Biomol
T1 sequence (P11473 1-427): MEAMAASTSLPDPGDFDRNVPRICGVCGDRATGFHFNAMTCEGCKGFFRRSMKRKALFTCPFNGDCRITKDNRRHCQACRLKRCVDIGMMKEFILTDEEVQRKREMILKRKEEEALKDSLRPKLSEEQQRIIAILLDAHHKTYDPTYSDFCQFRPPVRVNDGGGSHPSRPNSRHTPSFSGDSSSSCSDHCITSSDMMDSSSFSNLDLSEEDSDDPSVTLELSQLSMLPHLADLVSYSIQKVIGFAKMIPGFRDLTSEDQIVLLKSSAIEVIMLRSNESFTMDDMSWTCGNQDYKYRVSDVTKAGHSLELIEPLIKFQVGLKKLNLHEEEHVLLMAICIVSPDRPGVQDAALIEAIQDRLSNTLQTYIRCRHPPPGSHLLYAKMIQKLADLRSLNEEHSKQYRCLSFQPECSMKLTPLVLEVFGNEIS
Kind of test: VDR binding assay ([3H]-1,25(OH)2D3 displacement). Conditions: human recombinant VDR; read-out: B50 (VDR binding, displacement of 50 percent [3H]-1,25(OH)2D3). The procedure: • 1. VDR 9.4 μmol/μl (human, recombinant, Biomol). • 2. [^3H]-1,25(OH)2D3 in ethanol • 3. 1,25(OH)2D3 in ethanol • 4. TEK300 • Tris-HCl 50 mM • EDTA 1.5 mM • KCl 300 mM • Adjusted pH to 7.4 (25° C.) • 5. TEDK300 • TEK300 • DTT (dithiothreitol) 10 mM (MW 154.24) • 6. Tris buffer • 22.50 g Tris-HCI • 500 ml H2O • 13.25 g Tris-base • 500 ml H2O • Kept in 4° C. • 7. Dextran-T70 (Mol 70,000) Pharmacia • 8. Charcoal (carbon decolorizing neutral, norit) Fisher Scientific • 9. Gelatin (G-2625 Sigma) (ii) Reagent Preparation: 1. Charcoal Dextran Solution
(1) Tris Buffer • Mixed equal amount of Tris-HCl and Tris-base.
(2) Norit decolorizing neutral charcoal 2.0 g • Tris buffer 150 mL • Stirred
(3) Dextran T-70 0.2 g • Tris buffer 50 ml.
(4) Slowly dripped the suspended dextran into charcoal solution with stirring. • Kept in refrigerator overnight. • Thirty minutes before use, stored on ice with continuous mixing. 2. […]
• Pipetted 100 μL of the upper, aqueous phase to a 24 well scintillation counting plate and added 600 μL scintillation fluid per well, covered and mixed well. Counted the plate using a scintillation counter for 5 min/sample. (iv) Calculations: • The amount of 1,25(OH)2D3 to displace 50 percent [^3H]-1,25(OH)2D3 from VDR was calculated as B50 for 1,25(OH)2D3. The VDR binding of other compounds was calculated as B50 relative to a value of 1 for 1,25(OH)2D3. • Serial Dilution of 1,25(OH)D3

As to `C=C1/C(=C\C=C2/CCC[C@]3(C)C([C@H](C)C/C=C/C(=NOC)C(C)(C)C)=CC[C@@H]23)C[C@@H](O)C[C@@H]1O` [(20R)-I(e)], the IC50 stood at 60 nM.
